Assay results taken from patent US20030165853A1, “Antisense imaging of gene expression of the brain in vivo” (The Regents of the University of California Office of …, priority 2000, published 2003).

What was measured:
[1] = biological target: rat transferrin receptor (rat) (UniProt Q99376); assay: cell-based or functional assay
C6 cells = assay: Uptake of [125I]PNA tracers in cultured C6 cells; format: cell-based, rat; conditions: 2-24 h incubation, TCA-precipitable cellular fraction
Protocol: (§1) The uptake of ^125I-labeled antirev or antiluciferase PNA was investigated in C6-790 and C6 cells in the presence or absence of OX26/SA. Cells were grown in 24 well dishes and incubated with 5 μCi/ml (12 nM) [^125I]PNA with and without OX26/SA (1:1 molar ratio) for 2, 4, 6, or 24 h. The monolayers were then washed 3 times in 2.5 ml cold PBS (10 mM phosphate buffer, pH 7.2/150 mM NaCl) and lysed with 250 μl reporter lysis buffer (Promega), as previously described (Boado and Pardridge (1998) Mol. Brain Res. 59: 109-113). Aliquots of samples (100 μl) and standards (10 μl) were precipitated with TCA, and the percent of medium PNA that was taken up into the TCA-precipitable cellular fraction was measured and expressed either as nanograms PNA per milligram protein or percentage uptake per milligram protein. Twenty-microliter lysate aliquots were also resolved by SDS in a 12% gel. Gels were fixed in 50% MeOH and 10% acetic acid solution for 30 min, incubated in 7% MeOH, 7% acetic acid and 1% glycerol for 5 min, and dried before autoradiography with Kodak BioMax film and intensifying screens. For the pulse-chase study, either control C6 or C6-790 cells were incubated as described above with 10 μCi/ml (24 nM) [^125I]antiluciferase PNA conjugated to OX26SA for 24 h. […] TCA-precipitable cellular radioactivity was then measured at 0, 2, 6, or 24 h of incubation.

C6-790 cells = assay: Uptake of [125I]PNA tracers in cultured C6-790 cells; format: cell-based, rat; conditions: 2-24 h incubation, TCA-precipitable cellular fraction
Protocol: as §1

C6 experimental tumors = assay: Film autoradiography in rats bearing control C6 tumors not transfected with the luciferase transgene; format: in vivo, rat; conditions: 100 μCi i.v., brain removed at 2 h
Protocol: The C6-790 cells were implanted in the caudate-putamen nucleus of male CD Fischer 344 rats (Harlan Breeders, Indianapolis, Ind.), weighing 250-275 g under stereotaxic guidance, as described previously (Kurihara et al. (1999) Bioconjugate Chem. 10: 502-511). The animals were examined 14 days later. To confirm expression of the luciferase transgene in the tumor in vivo, tumor extracts were prepared in Promega lysis buffer, and luciferase enzyme activity was measured with luciferin as substrate (Promega) by using a Berthold (Nashua, N.H.) luminometer, as described previously (Boado and Pardridge (1998) Mol. Brain Res. 59: 109-113). A luciferase standard curve was also assayed, and the enzyme activity was expressed as picograms of luciferase equivalent per milligram of tissue protein. The C6-790 cells were grown in tissue culture as described previously (Id.), and these cells were also extracted in Promega lysis buffer for measurement of luciferase activity in the cells grown in tissue culture before implantation in brain. Control experiments were performed with C6 cells described previously (13), and these cells were used to develop brain tumors exactly as described above, except these tumor cells were not transfected with the luciferase transgene.
The brain scans and autopsy stains for three different groups of adult Fischer rats bearing the C6-790 gliomas are shown in FIG. 5. […]

luciferase mRNA [2] = assay: Film autoradiography in rats bearing C6-790 brain tumors; format: in vivo, rat; conditions: 100 μCi i.v., brain removed at 2 h, C6-790 gliomas in Fischer rats
Protocol: Fourteen days after implantation of C6-790 cells, the rats were anesthetized with ketamine and xylazine for i.v. injection of brain imaging agents, as described previously (Kurihara et al. (1999) Bioconjugate Chem. 10: 502-511). […] In these studies, each rat received 0.2 nmol of PNA and 40 μg (0.2 nmol) of OX26/SA. Each rat was also administered 20 mg of L-tyrosine and 2 mg of sodium iodide i.p. 15 min before the study to block brain uptake of radiolabeled metabolites such as [^125I]tyrosine or iodide. […]

[3] = rat, in vivo, iv
Protocol: Either the unconjugated anti-luciferase PNA or the anti-luciferase PNA conjugated to OX26/SA was injected intravenously into ketamine/xylazine anesthetized adult male Sprague-Dawley rats (270-300 g) by using methods described previously (10). The dose of radioactivity in these experiments was 5 μCi/rat of PNA (0.02 nmol) conjugated to 20 μg/rat of OX26/SA (0.1 nmol).

luciferase mRNA [4] = assay: Luciferase RNase protection assay; format: binding, firefly; conditions: RNase A/T1 protection
Protocol: These methods were identical to those described previously (Pardridge et al. (1995) Proc. Natl. Acad. Sci., USA, 92: 5592-5596). The luciferase RNA was prepared with a luciferase transcription plasmid, designated clone 760, which has been described previously (Tsukamoto et al. (1997) J. Neurochem. 68: 2587-2592). The sense RNA was synthesized with T7 RNA polymerase after linearization of the plasmid with EcoRI. The transcribed RNA was radiolabeled with [^32Pα]ATP, and the correct size of the radiolabeled transcribed sense RNA was determined by agarose/formaldehyde gel electrophoresis followed by film autoradiography. For the RNase protection assay, 0.5 pmol of biotinylated luciferase PNA with or without conjugation to 10 pmol of OX26/SA was added to 10 5 cpm of ^32P-labeled sense luciferase RNA (8 fmol) in 3 μl buffer (50 mM NaCl/5 mM Tris, pH 8/0.5 mM EDTA) and annealed for 30 min at 56° C. Then 15 units of RNase T1 and 0.4 units of RNase A were added to samples in […] of RNase digestion buffer m (Ambion, Austin, Tex.). RNA fragments were analyzed by 7 M urea/20% PAGE and autoradiography, as described previously (Pardridge et al. (1995) Proc. Natl. Acad. Sci., USA, 92: 5592-5596). Labeled RNA and PNA were heat denatured for 2 min at 95° C. and then incubated on ice for 2 min immediately before the experiment or conjugation to OX26/SA.

HD mRNA = assay: HD RNase protection assay; format: binding, human; conditions: RNase T1/A digestion, PAGE autoradiography
Protocol: The sense RNA was synthesized with T3 RNA polymerase following linearization of the plasmid with EcoRI. The transcribed RNA was radiolabeled with [^32Pα]ATP to a specific activity of 0.22 μCi/pmol, as previously described (Boado and Pardridge (1994) Bioconj. Chem., 6: 406-410). For the RNAse protection assay, 0.6 pmol of biotinylated HD-PNA or biotinylated luciferase-PNA, with or without conjugation to 6.4 pmol of MAb-SA, was added to 10^5 CPM of [^32P]-labeled sense HD RNA (0.2 pmol) in 3 μl buffer (80 mM NaCl, 7 mM phosphate buffer, pH=7.5, 0.1% BSA), and annealed for 30 minutes at 42° C. Then 20 units RNAse Ti and 2.5 μg RNAse A were added to the samples in 17 μl of RNAse digestion buffer (0.3 M NaCl, 10 mM TRIS pH=7.5, 4 mM EDTA, 0.02% tRNA, 0.02% BSA) and incubated for 30 min at 37° C. RNA fragments were analyzed by 7 M urea/20% polyacrylamide gel electrophoresis following by autoradiography as described by Pardridge et al. (1995) Proc. Natl. Acad. Sci., USA, 92:5592-5596. Labeled RNA and PNAs were heat denatured for 2 minutes at 95° C. and then incubated on ice for 2 minutes immediately before the experiment or conjugation to MAb-SA.

rat transferrin receptor (rat), sequence (Q99376 whole entry): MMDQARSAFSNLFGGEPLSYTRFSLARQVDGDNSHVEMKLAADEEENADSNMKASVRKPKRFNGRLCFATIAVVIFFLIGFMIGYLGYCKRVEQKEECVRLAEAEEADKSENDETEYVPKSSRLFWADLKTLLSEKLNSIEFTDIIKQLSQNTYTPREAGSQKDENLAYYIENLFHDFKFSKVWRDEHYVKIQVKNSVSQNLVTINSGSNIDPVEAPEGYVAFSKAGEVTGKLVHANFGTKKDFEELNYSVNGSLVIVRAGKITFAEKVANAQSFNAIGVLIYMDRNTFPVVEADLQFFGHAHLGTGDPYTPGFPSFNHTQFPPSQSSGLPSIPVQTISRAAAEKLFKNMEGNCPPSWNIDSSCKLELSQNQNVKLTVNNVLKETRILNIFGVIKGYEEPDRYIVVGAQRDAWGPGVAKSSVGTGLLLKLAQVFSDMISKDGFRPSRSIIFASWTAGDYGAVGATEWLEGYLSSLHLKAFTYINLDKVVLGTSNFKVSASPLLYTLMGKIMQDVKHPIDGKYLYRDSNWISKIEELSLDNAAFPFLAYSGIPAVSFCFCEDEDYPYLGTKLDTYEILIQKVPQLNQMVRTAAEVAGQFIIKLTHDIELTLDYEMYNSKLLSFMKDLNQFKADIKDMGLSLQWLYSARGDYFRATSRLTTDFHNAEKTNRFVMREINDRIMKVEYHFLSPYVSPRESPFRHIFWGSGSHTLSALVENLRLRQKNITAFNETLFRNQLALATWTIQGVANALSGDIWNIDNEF

Row | uptake of [125I]PNA conjugate by cells after 24 h of incubation (ng PNA per milligram of protein) [1] | Substance | uptake by C6 cells (C6 cells) | uptake by C6-790 cells (C6-790 cells) | radioactivity in control C6 tumors (C6 experimental tumors) | imaging of luciferase gene expression in brain tumor (luciferase mRNA [2]) | plasma clearance [3] [mL/min/kg] | hybridization to luciferase sense RNA (protection of 16 mer RNA fragments) (luciferase mRNA [4]) | hybridization to HD mRNA (RNase protected fragment) (HD mRNA)
1 | 10 | conjugate of the OX26 mAb (mouse monoclonal antibody to the rat transferrin receptor) and recombinant streptavidin (from UniProt P22629 37-163) | – | – | – | – | – | – | –
2 | – | antirev PNA: control PNA antisense to the rev gene of HIV, sequence CTCCGCTTCTTCCTGCCA (all peptide nucleic acid (PNA); 125I-radiolabelled, conjugated to streptavidin-OX26 antibody, attachment not given here, further chemistry not fully specified) [reference compound] | negligible | negligible | – | – | – | – | –
3 | – | antiluciferase PNA: biotinylated 16-mer peptide nucleic acid antisense to luciferase mRNA (CTTCCATTTTACCAAC), linkers, Tyr-Lys, amidated carboxy terminus; radioiodinated (all peptide nucleic acid (PNA); biotinylated, linkers, Tyr-Lys, amidated carboxy terminus, radioiodinated) | negligible | negligible | no measurable radioactivity was detectable | no imaging of either normal brain or brain tumor | 7.2 ± 0.4 | hybridized to the luciferase sense RNA | did not protect the RNA from nuclease digestion
